Assay results reported in patent US20150274639A1, “METHODS OF USE FOR COMPOSITIONS COMPRISING A BIOCIDAL POLYAMINE” (Curza Global, LLC, priority 2013, published 2015).
Converted amounts (≈) assume the structure as drawn. “And” between values parts separate entries of the source, which are not always exact repeats. Identical values can stand only once. Like-named read-outs stand apart in the source and are kept apart here.

How the values were obtained:
A. baumannii biofilm [1] = test: EBEC, high number biofilms on PEEK membranes (10^9 to 10^2 CFU/PEEK membrane in 24 hours); assay type: cell-based, Acinetobacter baumannii; conditions: Table 4
Protocol: (§1) In addition to determining the MIC and the MBEC of polyamine compounds against planktonic bacteria and low number biofilms, our group wanted to determine the efficacy of polyamine compounds against high number biofilms. To do so, biofilms were grown on the surface of polyetheretherketone (PEEK) membranes using a membrane biofilm reactor. This reactor is similar to the CDC biofilm reactor, but rather than growing biofilms on coupon surfaces, the reactor was modified to hold PEEK membranes. In short, to grow biofilms within this system, 500 mL of brain heart infusion (BHI) broth were inoculated with 1 mL of a 0.5 McFarland. The reactor was placed on a hot plate set at 34° C. and the bacteria were grown under batch conditions for 24 hours. Following this protocol, biofilms typically grow to 10^9 CFU/PEEK membrane. […] A solution of 10% BHI was then flowed through the reactor at a rate of 6.94 mL/min for an additional 24 hours. PEEK membranes were then removed and placed into 2 mL of CAMHB that contained a desired concentration of polyamine compound or antibiotic. The EBEC was defined as the concentration of antimicrobial required to reduce a biofilm from approximately 10^9 CFU/PEEK membrane to approximately 10^2 CFU/PEEK membrane in a 24-hour period.
(§2) In addition to determining the MIC and the MBEC of compounds against planktonic bacteria and low number biofilms, the efficacy of the compounds of the invention against high number biofilms is determined. To do so, biofilms are grown on the surface of PEEK membranes using a membrane biofilm reactor (Williams, D. L., Haymond, B. S. & Bloebaum, R. D. Use of delrin plastic in a modified CDC biofilm reactor. Res J Microbiol 6, 425-429 (2011); Williams, D. L., Woodbury, K. L., Haymond, B. S., Parker, A. E. & Bloebaum, R. D. A modified CDC biofilm reactor to produce mature biofilms on the surface of PEEK membranes for an in vivo animal model application. Curr Microbiol 62, 1657-1663 (2011); Williams, D. L. et al., In Vivo Efficacy of a Silicone—Cationic Steroid Antimicrobial Coating to Prevent Implant-Related Infection. Biomaterials 33, 8641-8656 (2012); Williams, D. L. et al., Experimental model of biofilm implant-related osteomyelitis to test combination biomaterials using biofilms as initial inocula. J Biomed Mat Res A 100, 1888-1900 (2012)). This reactor is similar to the CDC biofilm reactor, but rather than growing biofilms on coupon surfaces, the reactor was modified to hold PEEK membranes. In short, to grow biofilms within this system, 500 mL of brain heart infusion (BHI) broth is inoculated with 1 mL of a 0.5 McFarland. The reactor is placed on a hot plate set at 34° C. and the bacteria grown under batch conditions for 24 hours. A solution of 10% BHI will then be flowed through the reactor at a rate of 6.94 mL/min for an additional 24 hours. Following this protocol, biofilms typically grow to 10^9 CFU/PEEK membrane. PEEK membranes is removed and placed into 2 mL of CAMHB that contain a desired concentration of the test compound. The EBEC is defined as the concentration of antimicrobial required to reduce a biofilm from approximately 10^9 CFU/PEEK membrane to approximately 10^2 CFU/PEEK membrane in a 24-hour period.
EBEC data were collected to determine the efficacy of CZ-52, CZ-58 and traditional antibiotics against high number biofilms containing approximately 10^9 CFU grown on the surface of a polyetheretherketone (PEEK) membrane. […] In contrast, at 250 μg/mL CZ-52 was able to reduce MRSA biofilms by greater than 7 log10 units in a 24-hour period. Although the MIC of CZ-58 was lower against MRSA compared to A. baumannii, CZ-58 had greater activity against biofilms of A. baumannii than against MRSA biofilms in the EBEC assay. […] Although the MIC of CZ-58 was “high” compared to MICs of traditional antibiotics, the efficacy against biofilms was promising.

MRSA biofilm [2] = test: MBEC, MBEC Inoculation Tray by Innovotech (to 10^2 CFU/peg in 24 hours); assay type: cell-based, methicillin-resistant Staphylococcus aureus; conditions: Table 4
MRSA biofilm [3] = test: EBEC, high number biofilms on PEEK membranes (10^9 to 10^2 CFU/PEEK membrane in 24 hours); assay type: cell-based, methicillin-resistant Staphylococcus aureus; conditions: for EBEC, MRSA: Table 4
Protocol: as §1, §2
EBEC data were collected to determine the efficacy of CZ-52, CZ-58 and traditional antibiotics against high number biofilms containing approximately 10^9 CFU grown on the surface of a polyetheretherketone (PEEK) membrane.

biofilm of MRSA = test: Combination treatment: dispersal of MRSA biofilm; assay type: cell-based, methicillin-resistant Staphylococcus aureus; conditions: CZ-7 at […] mixed with chlorhexidine gluconate at […]; biofilm of 10^11 cells; within one hour
A. baumannii biofilm [4] = test: MBEC, MBEC Inoculation Tray by Innovotech (to 10^2 CFU/peg in 24 hours); assay type: cell-based, Acinetobacter baumannii; conditions: Table 4
From the text: To determine the MBEC of each polyamine compound, the MBEC Inoculation Tray by Innovotech, formerly known as the Calgary biofilm device, was used. Within this device, biofilms grow on the surface of polystyrene pegs, 96 of which are attached to a lid. These pegs are inserted into a flat bottom 96-well plate. In this instance, the MBEC of a molecule was defined as the concentration of compound (in μg/mL) required to reduce 10^5 or 10^6 CFU/peg (biofilm levels varied by isolate) to 10^2 CFU/peg in a 24-hour period.
Following the manufacturer's guidelines, biofilms were grown on the surface of each peg by first making a 0.5 McFarland of each isolate. The 0.5 McFarland was diluted 1:100 in CAMHB. Into each well of a flat bottom 96-well plate, 150 μL of broth were pipetted. The plate was shaken at 100 rpm for 24 hours (P. aeruginosa and A. baumannii) or 48 hours (MRSA). The pegs were then placed into a separate flat bottom 96-well plate for 10 seconds with 200 μL of phosphate buffered saline (PBS) in each well to remove nonadherent cells. The lid was then placed into a 96-well plate that contained varying concentrations of antimicrobial with 200 μL per well. The plate was incubated for 24 hours at 37° C. after which time 100 μL of broth were plated on TSA. TSA plates were incubated 24 hours at 37° C. and the number of CFU counted to calculate the CFU/peg. In this instance, the MBEC was defined as the concentration of antimicrobial required to reduce 10^5 or 10^6 CFU/peg to 10^2 CFU/peg in a 24 hour period.
To determine the MBEC, the MBEC Inoculation Tray by Innovotech, formerly known as the Calgary biofilm device, is used. Within this device, biofilms grow on the surface of polystyrene pegs, 96 of which are attached to a lid. These pegs are inserted into a flat bottom 96-well plate. In this instance, the MBEC of a molecule is defined as the concentration of compound required to reduce approximately 10^6 CFU/peg to approximately 10^2 CFU/peg in a 24-hour period.
Following the manufacturer's guidelines, biofilms are grown on the surface of each peg by first making a 0.5 McFarland of A. baumannii. The 0.5 McFarland is diluted 1:100 in CAMHB broth. Into each well of a flat bottom 96-well plate, 150 μL of broth is pipetted. The plate is shaken at 100 rpm for 24 hours. The pegs are placed into a separate flat bottom 96-well plate for 10 seconds with 200 μL of phosphate buffered saline (PBS) in each well to remove nonadherent cells. The lid is placed into a 96-well plate that contains varying concentrations of antimicrobial with 200 μL of broth per well. The plate is incubated for 24 hours at 37° C. after which time 100 μL of broth is plated on TSA. TSA plates is incubated 24 hours at 37° C. and the number of CFU counted to calculate the CFU/peg.
MBEC data were collected using the MBEC Inoculation Tray by Innovotech. The MBEC was defined in these preliminary results as the concentration of antimicrobial required to reduce 10^5 or 10^6 CFU/peg to 10^2 CFU/peg in a 24-hour period.

MRSA = test: MIC in CAMHB, 96-well plate (10^5 to 10^2 CFU/mL in 24 hours); assay type: cell-based, methicillin-resistant Staphylococcus aureus; conditions: Table 4
Protocol: To determine the MIC of polyamine compounds, the protocol described herein was used.
In brief, a 0.5 McFarland of each bacterial isolate was made. A 0.5 McFarland is a measure of turbidity in a liquid sample that contains approximately 1×10̂^8 CFU/mL. The 0.5 McFarland standard was diluted in cation adjusted Mueller Hinton Broth (CAMHB), and […], of broth were added to a well of a 96-well plate. In addition, 50 μL of CAMHB that contained a desired concentration of antimicrobial were also added to the well for a final volume of 100 and a final concentration of approximately 5×10^4 CFU/well (which equated to approximately 5×10^5 CFU/mL). Each well contained a desired amount of polyamine compound in order to experimentally determine the MIC. Each 96-well plate was incubated at 37° C. for 24 hours. The contents of each well were plated on tryptic soy agar (TSA). TSA plates were incubated for 37° C. for 24 hours after which the number of CFU were counted and used to calculate the CFU/mL that remained after exposure to varying concentrations of compound. This procedure was repeated n=8 times for each concentration of antimicrobial. […]

MRSA biofilm [5] = test: MBEC assay (Calgary Biofilm Device), 100% eradication (Example 2); assay type: cell-based, methicillin-resistant Staphylococcus aureus; conditions: eradicate 100% of detectable biofilm
Protocol: In addition to determining the MIC, the minimum biofilm eradication concentration (MBEC) of PBC-51 was also determined. The MBEC was determined using the MBEC assay, formerly known as the Calgary Biofilm Device, developed by Innovotech. In this instance, the MBEC was defined as the amount of antimicrobial required to eradicate 100% of detectable biofilm after being grown in the MBEC device. To grow the biofilms within this device, 150 μL of solution containing a concentration of 10^5 cells/mL were inoculated into each well of a 96-well plate. A lid containing 96 pegs was placed onto the plate and incubated for 24 hours at 37° C. while being shaken at 110 rpm. Biofilms developed on the surface of the polystyrene pegs within the 96-well plate. After 24 hours, each peg contained between 10^5 and 10^6 cells in well-established biofilms. The lid with pegs was transferred to a 96-well plate that contained 200 μL of varying concentrations of the compound and was incubated at 37° C. for an additional 24 hours. The plate was then sonicated, and the biofilms quantified using a 10-fold dilution series to determine the MBEC.

MRSA biofilm [6] = test: EBEC on PEEK membranes, 100% eradication (Example 2); assay type: cell-based, methicillin-resistant Staphylococcus aureus; conditions: PEEK membrane, eradicate all detectable amounts (100%)
Protocol: The fourth test that was performed was the effective biofilm eradication concentration (EBEC). To determine the EBEC, biofilms of MRSA and P. aeruginosa ATCC 27853 were grown on the surface of PEEK membranes using a previously established protocol. Briefly, 500 mL of brain heart infusion (BHI) broth were inoculated with 10^5 cells/mL of MRSA or P. aeruginosa. BHI broth was placed into a membrane biofilm reactor and placed on a hot plate set at 34° C. for 24 hours with a stir bar rotating at 130 rpm. Following the initial 24-hour growth period, a 10% BHI broth solution was flowed through the reactor at a rate of 6.944 mL/min for another 24 hours. After 48 hours of growth, each PEEK membrane had biofilm growth on it. In this experiment, there were ˜2×10^11 cells of MRSA per PEEK membrane and −2×10^10 cells of P. aeruginosa per PEEK membrane. The EBEC was defined as the concentration of the compound that was required to eradicate all detectable amounts (100%) of bacteria within the biofilms.

| Compound | EBEC, A. baumannii (A. baumannii biofilm [1]) | MBEC, MRSA (MRSA biofilm [2]) | EBEC, MRSA (MRSA biofilm [3]) | dispersal of MRSA biofilm (biofilm of MRSA) | MBEC, A. baumannii (A. baumannii biofilm [4]) | MIC, MRSA (MRSA) [µg/mL] | MBEC (MRSA biofilm [5]) | reduction of MRSA biofilms (MRSA biofilm [3]) [log10 unit] | reduction of MRSA biofilms (MRSA biofilm [3]; at 25,000 μg/mL) [log10 unit] | EBEC (MRSA biofilm [6]) |
| --- | --- | --- | --- | --- | --- | --- | --- | --- | --- | --- |
| NCCCNCCCNCc1ccccc1 [CZ-7, benzylnorspermidine] | > 10,000 μg/mL and > 45,180 μM | > 500 μg/mL and > 2,259 μM | > 5,000 μg/mL and > 22,590 μM | significant dispersal | > 500 μg/mL and > 2,259 μM | – | – | – | – | – |
| CN[C@H](CC(C)C)C(=O)N[C@H]1C(=O)N[C@@H](CC(N)=O)C(=O)N[C@H]2C(=O)N[C@H]3C(=O)N[C@H](C(=O)N[C@H](C(=O)O)c4cc(O)cc(O)c4-c4cc3ccc4O)[C@H](O)c3ccc(c(Cl)c3)Oc3cc2cc(c3O[C@@H]2O[C@H](CO)[C@@H](O)[C@H](O)[C@H]2O[C@H]2C[C@](C)(N)[C@H](O)[C@H](C)O2)Oc2ccc(cc2Cl)[C@H]1O [Vancomycin, reference compound] | – | > 500 μg/mL and > 345 μM | > 25,000 μg/mL | – | – | 10 (≈ 6.9 µM) | > 500 μg/mL and > 336.50 μM | < 1 | < 1 | > 20,000 μg/mL and > 13,460 μM |
